Molecular target: T1, Recombinant human Plk-1 (6×His) (Homo sapiens, UniProt P53350)
T1 construct: 6xHis; made in house; host or cells: baculovirus-infected Hi5 insect cells
Experiment: PLK enzyme assay
Type: biochemical
Conditions: Table 1; read-out: PLK IC50
Experimental: Recombinant human Plk-1 (6×His) was purified from baculovirus-infected insect cells (Hi5).
10 ng of (produced in a recombinant manner and purified) PLK enzyme is incubated for 90 minutes at room temperature with biotinylated casein and 33P-γ-ATP as a substrate in a volume of 15 μl in 384-well Greiner small-volume microtiter plates (final concentrations in the buffer: 660 ng/ml of PLK; 0.7 μmol of casein, 0.5 μmol of ATP incl. 400 nCi/ml of 33P-γ-ATP; 10 mmol of MgCl2, 1 mmol of MnCl2; 0.01% NP40; 1 mmol of DTT, protease inhibitors; 0.1 mmol of Na2VO3 in 50 mmol of HEPES, pH 7.5). To complete the reaction, 5 μl of stop solution (500 μmol of ATP; 500 mmol of EDTA; 1% Triton X100; 100 mg/ml of streptavidin-coated SPA beads in PBS) is added. After the microtiter plate is sealed by film, the beads are sedimented by centrifuging (10 minutes, 1500 rpm). The incorporation of 33P-γ-ATP in casein is intended as a measurement of enzyme activity by β-counting.
Test substances are used in various concentrations (0 μmol, as well as in the range of 0.01-30 ∥mol). The final concentration of the solvent dimethyl sulfoxide is 1.5% in all batches.

T1 sequence (P53350 whole entry): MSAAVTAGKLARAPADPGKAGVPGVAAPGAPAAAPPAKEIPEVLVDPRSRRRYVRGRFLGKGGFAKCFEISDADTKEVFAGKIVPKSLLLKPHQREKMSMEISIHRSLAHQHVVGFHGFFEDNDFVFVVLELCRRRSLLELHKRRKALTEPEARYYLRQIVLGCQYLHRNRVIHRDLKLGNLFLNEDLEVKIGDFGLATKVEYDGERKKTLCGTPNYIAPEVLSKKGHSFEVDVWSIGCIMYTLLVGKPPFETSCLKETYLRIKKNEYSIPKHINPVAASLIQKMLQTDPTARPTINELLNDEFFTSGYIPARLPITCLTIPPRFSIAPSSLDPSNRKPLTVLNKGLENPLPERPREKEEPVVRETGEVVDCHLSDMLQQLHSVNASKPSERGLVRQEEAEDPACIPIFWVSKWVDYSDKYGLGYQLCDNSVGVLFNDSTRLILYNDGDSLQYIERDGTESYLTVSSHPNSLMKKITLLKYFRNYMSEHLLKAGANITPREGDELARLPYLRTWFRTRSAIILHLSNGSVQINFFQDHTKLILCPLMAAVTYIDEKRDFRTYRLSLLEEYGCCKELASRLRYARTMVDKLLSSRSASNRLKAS

Row | IC50 [nM] | SMILES
1 | 3100 | CCn1c(=O)c(=CNc2ccccc2)s/c1=C(/C#N)C(=O)NCc1ccco1 [Example 223]
2 | 500 | CCOC(=O)C(C#N)=c1sc(=CNc2ccc(NC(=O)COC)cc2)c(=O)n1CC [Example 19]
3 | 950 | CCCCN(C)C(=O)/C(C#N)=c1\sc(=CNc2ccccc2)c(=O)n1CC [Example 234]
4 | 810 | CCOC(=O)C(C#N)=c1sc(=CNc2ccc(OC)c(NC(=S)N3CCOCC3)c2)c(=O)n1CC (mixture of isomers) [Example 56]
5 | 160 | CCOC(=O)C(C#N)=c1sc(=CNc2ccccc2F)c(=O)n1CC (mixture of isomers) [Example 36]

Same assay, conditions: Table 2, Amides; read-out: Inhibition of Plk-1 IC50

Row | IC50 [nM] | SMILES
6 | 74 | CCn1c(=O)c(=CNc2ccc(OCCN(C)C)cc2)s/c1=C(/C#N)C(=O)NCC(F)F [Example 310]
7 | 71 | C#CCNC(=O)/C(C#N)=c1\sc(=CNc2ccc(OCCN(C)C)cc2)c(=O)n1CC [Example 307]

Same assay, conditions: Table 3, Esters; read-out: Inhibition of Plk-1 IC50

Row | IC50 [nM] | SMILES
8 | 23 | C=CCOC(=O)C(C#N)=c1sc(=CNc2ccc(NC(=O)NCCN3CCCC3)cc2)c(=O)n1CC (mixture of isomers) [Example 47]

System: human MaTu breast tumor cells
Experiment: Proliferation assay (crystal violet)
Type: cell-based
Conditions: 96 h, Table 2, Amides, 4 days, read-out: Inhibition of Tumor Cell Proliferation (MaTu) IC50
Experimental: Cultivated human MaTu breast tumor cells were flattened out at a density of 5000 cells/measuring point in a 96-well multititer plate in 200 μl of the corresponding growth medium. After 24 hours, the cells of one plate (zero-point plate) were colored with crystal violet (see below), while the medium of the other plates was replaced by fresh culture medium (200 μl), to which the test substances were added in various concentrations (0 μm, as well as in the range of 0.01-30 μm; the final concentration of the solvent dimethyl sulfoxide was 0.5%). The cells were incubated for 4 days in the presence of test substances. The cell proliferation was determined by coloring the cells with crystal violet: the cells were fixed by adding 20 μl/measuring point of an 11% glutaric aldehyde solution for 15 minutes at room temperature. After three washing cycles of the fixed cells with water, the plates were dried at room temperature. The cells were colored by adding 100 μl/measuring point of a 0.1% crystal violet solution (pH was set at 3 by adding acetic acid). After three washing cycles of the colored cells with water, the plates were dried at room temperature. The dye was dissolved by adding 100 μl/measuring point of a 10% acetic acid solution. The extinction was determined by photometry at a wavelength of 595 nm. The change of cell growth, in percent, was calculated by standardization of the measured values to the extinction values of the zero-point plate (=0%) and the extinction of the untreated (0 μm) cells (=100%).

Row | IC50 [nM] | SMILES
9 | 9700 | CCn1c(=O)c(=CNc2cccc(NC(=O)C(C)(C)C)c2)s/c1=C(/C#N)C(=O)NC1(CO)CCCC1 [Example 192]
10 | 3550 | CCNC(=O)/C(C#N)=c1\sc(=CNc2cccc(C(=O)NCCCN3CCCC3)c2)c(=O)n1CC [Example 169]
11 | 1200 | CCN(CC)CCNC(=O)c1c[nH]c2ccc(NC=c3s/c(=C(/C#N)C(=O)NCC(F)(F)F)n(CC)c3=O)cc12 [Example 330]
12 | 2800 | CCn1c(=O)c(=CNc2ccc(CCN3CCCC3)cc2)s/c1=C(/C#N)C(=O)NCC(F)(F)F [Example 527]
13 | 4500 | CCn1c(=O)c(=CNc2ccccc2)s/c1=C(/C#N)C(=O)N1CCCC1 [Example 210]

Same assay, conditions: 96 h, Table 3, Esters, 4 days, read-out: Inhibition of Tumor Cell Proliferation (MaTu) IC50

Row | IC50 [nM] | SMILES
14 | 1400 | C=CCOC(=O)C(C#N)=c1sc(=CNc2ccc(C(C)=O)cc2)c(=O)n1CC (mixture of isomers) [Example 133]
15 | 3100 | CCOC(=O)C(C#N)=c1sc(=CNc2ccc(C(C)=O)cc2)c(=O)n1CC (mixture of isomers) [Example 132]
16 | 3300 | CCOC(=O)C(C#N)=c1sc(=CNc2ccc(NC(=O)NCCN3CCCC3)cc2)c(=O)n1CC [Example 74]
17 | 1100 | C=CCOC(=O)C(C#N)=c1sc(=CNc2ccc(NC(=O)NCCN3CCCC3)cc2)c(=O)n1CC (mixture of isomers) [Example 47]

From US20070037862A1, “Thiazolidinones, their production and use as pharmaceutical agents” (priority 2003, published 2007)
